# Laboratory results: PMC6836644, “A multiple classifier system identifies novel cannabinoid CB2 receptor ligands” (Journal of Cheminformatics, 2019)
# Biological target: T1, human CB2 receptor (Homo sapiens, UniProt P34972)
# T1 construct: beta-galactosidase fragment (the cell line's name says 'bgal'; own knowledge: PathHunter enzyme-fragment-complementation lines carry a small beta-gal fragment fused to the receptor's C-terminus); host or cells: CHO-K1 (CHOK1hCB2_bgal), membranes
# Test: [3H]CP55940 displacement assay
# Format: binding
# Settings: 10 μM of the compound; [3H]CP55940, CHOK1hCB2_bgal membranes
# Description: CHOK1hCB2_bgal cells (DiscoverRx, Fremont, CA, USA) were cultured in Dulbecco’s Modified Eagle’s Medium/Nutrient Mixture F-12 Ham supplemented with 10% fetal calf serum, 1 mM glutamine, 50 µg/mL penicillin, 50 µg/mL streptomycin, […] hygromycin and 800 µg/mL geneticin in a humidified atmosphere at 37 °C and 5% CO2. Cells were subcultured twice a week at a ratio of 1:20 on 10-cm diameter plates by trypsinization. For membrane preparation, the cells were subcultured with a ratio of 1:10 and transferred to 15-cm diameter plates. The cells were collected by scraping in 5 mL phosphate-buffered saline (PBS) and centrifuged at 1000 g for 5 min. Pellets derived from 30 plates were combined and resuspended in 20 mL cold Tris–HCl, MgCl2 buffer (50 mM Tris–HCl (pH 7.4), 5 mM MgCl2). The cell suspension was homogenized using an UltraTurrax homogenizer (Heidolph Instruments Schwabach, Germany). Membranes and cytosolic fractions were separated by centrifugation in a Beckman Optima LE-80 K ultracentrifuge (Beckman Coulter Inc., Fullerton, CA, USA) at 100,000 g for 20 min at 4 °C. The supernatant was discarded. The pellet was resuspended in 10 mL cold Tris–HCl, MgCl2 buffer and homogenization and centrifugation steps were repeated. The membranes were resuspended in 10 mL cold Tris–HCl, MgCl2 buffer. Aliquots of 50 µL were stored at -80 °C until further use. The protein concentration was determined using the Pierce™ BCA Protein Assay Kit (ThermoFisher Scientific, Waltham, MA, USA).
# At first, all compounds were tested at a final concentration of 10 µM. […] Six different concentrations of the compounds were added by an HP D300 digital dispenser (Tecan Group Ltd, Männedorf, Switzerland). In order to determine the total binding, a control without test compound was included. Nonspecific binding was determined in the presence of 10 µM AM630. The total assay volume was 100 µL. The final concentration of DMSO was ≤ 0.25%. The incubation was terminated by rapid vacuum filtration through GF/C 96-well filter plates (PerkinElmer, Waltham, MA), to separate the bound and free radioligand, using a PerkinElmer Filtermate-harvester (PerkinElmer, Groningen, The Netherlands). Filters were subsequently washed […] with ice-cold assay buffer. The filter-bound radioactivity was determined by scintillation spectrometry using a Microbeta2® 2450 microplate counter (PerkinElmer, Boston, MA), after addition of 25 μl MicroScint 20 (PerkinElmer, Groningen, The Netherlands) and 3 h incubation.
# All experimental data were analyzed using GraphPad Prism 7 [36]. The data were normalized to percentage specific radioligand binding, where the total binding is 100% and nonspecific binding is 0%. […] All data were obtained from three separate experiments performed in duplicate.
# T1 sequence (P34972 whole entry, the tested form may be a part): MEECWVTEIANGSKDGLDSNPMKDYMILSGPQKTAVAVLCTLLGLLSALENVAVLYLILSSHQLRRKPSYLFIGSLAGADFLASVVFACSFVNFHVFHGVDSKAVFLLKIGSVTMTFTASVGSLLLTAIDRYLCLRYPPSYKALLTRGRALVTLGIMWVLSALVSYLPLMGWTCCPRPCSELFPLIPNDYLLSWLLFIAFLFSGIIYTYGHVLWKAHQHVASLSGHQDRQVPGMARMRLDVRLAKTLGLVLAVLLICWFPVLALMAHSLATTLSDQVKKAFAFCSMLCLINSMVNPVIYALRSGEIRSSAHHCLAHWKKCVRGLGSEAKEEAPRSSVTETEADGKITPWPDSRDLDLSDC
row,SMILES,% displacement of the radioligand
1,CCn1cc(C(=O)NCC2(N3CCOCC3)CCCCC2)c(=O)c2ccc(C)nc21 [Z27019562],30%
2,Cc1nn(-c2ccccc2)c2sc(C(=O)NC34CC5CC(CC(C5)C3)C4)cc12 [Z27687279],38%
3,CC1(C)C2CCC1(C)C(NC(=O)C1CCN(S(=O)(=O)c3ccc(F)c(F)c3)CC1)C2 (centres unmarked) [Z28357392],26%
4,CCC(NC(=O)c1cccc(S(=O)(=O)N2CCOCC2)c1)C12CC3CC(CC(C3)C1)C2 (centres unmarked) [Z28609248],16%
5,CC1(C)C2CC=C(/C=N/NC(=O)CCc3ccc(S(=O)(=O)N4CCOCC4)cc3)C1C2 (centres unmarked) [Z44867007],0%
6,COc1ccc(C=C(C(=O)NC2CCCCC2)C(=O)NC2CCCCC2)cc1OC [Z46091805],38%
7,CCN(CC)c1ccc(S(=O)(=O)N2CCOCC2)cc1NS(=O)(=O)CC12CCC(CC1=O)C2(C)C (centres unmarked) [Z55473655],7%
8,CCC(C)(C)C1CCC(NC(=O)c2cc(S(=O)(=O)N3CCOCC3)ccc2C)CC1 (centres unmarked) [Z91179667],29%
9,CC(C)C(NC(=O)CN1CCN(c2nccn2C)CC1)c1ccc2c(c1)OCCCO2 (centres unmarked) [Z1317886912],3%
10,CC1(CN2CCOCC2)CCN(CC(=O)N2CCc3sccc3C2)CC1 [Z1523102560],18%
11,COc1ccc2c(c1)c(C(=O)N(C)CC(C)OC)c(C)n2C1CC1 (centres unmarked) [Z2094674960],0%

# Same assay, conditions: [3H]CP55940 (~1.5 nM) displacement, CHOK1hCB2_bgal membranes, 25 °C, 2 h; three separate experiments in duplicate
row,SMILES,pKi ± SEM
1,Cc1ccc(NC(=O)C2CCC(C(C)(C)C)CC2)cc1S(=O)(=O)N1CCOCC1 (centres unmarked) [Z26476746],6.54 ± 0.14
2,CCOC(=O)c1c(NC(=O)CC23CC4CC(CC(C4)C2)C3)sc2c1CCCC2 [Z27680708],7.46 ± 0.32
3,Cc1ccc(C(=O)NC23CC4CC(CC(C4)C2)C3)cc1S(=O)(=O)N1CCCCC1 [Z27687312],7.22 ± 0.46
4,CCCCn1nc(C(=O)NC2CC3CCC2(C)C3(C)C)c2ccccc2c1=O (centres unmarked) [Z28357657],6.81 ± 0.29
5,Cc1ccc(C(=O)NC2CCCC(C)C2C)cc1S(=O)(=O)N1CCOCC1 (centres unmarked) [Z32934509],6.47 ± 0.02
6,CCc1ccc(C(=O)NC(C)C23CC4CC(CC(C4)C2)C3)cc1S(=O)(=O)N1CCOCC1 (centres unmarked) [Z336532434],7.67 ± 0.17
